Earlier results on 1 compound are cited in patent US8372933B2, “Hyperbranched polymers based on cyclodextrins and poly (amidoamines) for the controlled release of insoluble drugs” (L'Urederra Fundacion Para el Desarrollo Tecnologico y Social, priority 2007, dated 2013).

The conditions of the data set: oral.

Each structure is given as a SMILES string.

In the case of `Nc1nc2c(ncn2COCCO)c(=O)[nH]1` [Acyclovir], the bioavailability is reported as 15-30%.
